We go through two compounds from patent US10398689B2, “Benzopiperidine derivative, preparation method thereof and medical use thereof” (Jiangsu Hengrui Medicine Co., Ltd., priority 2015, dated 2019).

One may read the Emax as the greatest response seen or fitted, relative to the assay's reference.

Holding throughout (format): cell-based
The target of one test is T1, ERα (Homo sapiens, UniProt P03372).
T1 construct: host or cells: MCF-7
T1 sequence (P03372 1-595): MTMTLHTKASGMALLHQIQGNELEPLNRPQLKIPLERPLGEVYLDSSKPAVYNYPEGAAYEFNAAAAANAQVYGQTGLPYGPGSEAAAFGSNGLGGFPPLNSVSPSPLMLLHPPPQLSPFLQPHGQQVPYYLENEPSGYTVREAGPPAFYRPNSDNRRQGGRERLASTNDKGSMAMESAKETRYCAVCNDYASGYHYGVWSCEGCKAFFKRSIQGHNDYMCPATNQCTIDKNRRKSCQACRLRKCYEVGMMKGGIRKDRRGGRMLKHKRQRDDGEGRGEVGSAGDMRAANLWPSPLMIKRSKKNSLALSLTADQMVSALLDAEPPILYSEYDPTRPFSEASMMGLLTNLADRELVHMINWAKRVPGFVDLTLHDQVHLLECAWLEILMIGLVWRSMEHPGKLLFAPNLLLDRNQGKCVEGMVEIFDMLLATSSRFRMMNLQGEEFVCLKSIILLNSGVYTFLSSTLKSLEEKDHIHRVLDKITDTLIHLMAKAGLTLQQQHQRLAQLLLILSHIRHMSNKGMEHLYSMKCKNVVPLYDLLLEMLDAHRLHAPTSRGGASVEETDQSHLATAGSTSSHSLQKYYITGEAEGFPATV
Nature of the test: Degradation effect on ERα in MCF-7 cells (ERα Duoset ELISA). The conditions noted are these: MCF7; compound at 3 μM, relative to positive control AZD-9496 at 3 μM set to 100%. The procedure: In order to determine the degradation effect on ER induced by the compound of present invention, the following method was used to determine the degradation effect of the compounds of the present invention on ER.
MCF-7 cell line (TChu 74, Cell Bank of Chinese Academy of Sciences typical culture preservation Committee)
ERα Duoset Kit (#DYC5715E, R&D System)
MCF-7 cells well incubated in DMEM/F-12 medium containing 10% FBS.
On the first day of the experiment, MCF-7 cells were resuspended in DMEM/F-12 medium containing 10% FBS treated by activated carbon, then inoculated into a 48-well plate with a density of 50,000 cells/well and incubated for 22-24 hours.
On the second day of the experiment, the test compound was diluted with medium and added to a 48-well plate. The ERα-capture antibody was diluted to 1 μg/ml with PBS, and added with 100 μl/well to a 96-well plate at 100 μl/well. The plate was sealed and coated overnight at room temperature.
On the third day of the experiment, the coated 96-well plate was washed twice with PBS, added with a sealing solution (1% BSA in PBS) at 110 μl/well and sealed for 1 hour at room temperature. The 48-well plate was washed once and the residual liquid was removed. Then, 60 μl of lysis buffer (6 M urea, 1 mM EDTA, 0.5% Triton X-100, 1 mM PMSF, Protease Inhibitor cocktail) was added to each well. After lysis on ice for 15 minutes, the diluent (1 mM EDTA, 0.5% TritonX-100 dissolved in PBS) was added. The cell-diluted lysate was transferred to a 96-well plate at 100 μl/well, then the plate was incubated at room temperature for 2 hours. The diluted primary antibody was added after the plate was washed 4 times with a washing liquid (PBST). After incubation for 1 hour, the 96-well plate was washed 4 times, and the second antibody was added, then the plate was incubated for 30 minutes. After the plate was washed with a washing liquid, TMB chromogenic solution was added and incubated for 15 minutes. The reaction was stopped by the addition of 1 M H2SO4, then the light absorption at a wavelength of 450 nm was read. The degradation effect of the compound AZD9496 at 3 μM was set to 100%, the Emax of other compounds=(ODnegative control−ODcompound 3 μM)/(ODnegative control−ODAZD9496 3 μM)×100%, and the negative control was a well with DMSO.
Background: ELISA stands for enzyme-linked immunosorbent assay.

For another test, the system named is MCF7 cells. Nature of the test: Inhibition of the proliferation of MCF7 cells (Cell Titer-Glo). The settings on record: Homo sapiens, MCF-7 cells, 72 hours, read-out: IC50 value of inhibition effect on the proliferation of MCF7 cells. Summed up: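 MCF-7 cells seeded 24 h, then treated with compound (0.5% DMSO final) in 2% FBS medium for 72 h at 37 °C; viability read by CellTiter-Glo luminescence. IC50 from luminescence vs log concentration; maximum inhibition scaled to AZD9496 at 100 nM set as 100%.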
Background: ATP-based viability assays read luminescence as a measure of living cells.

In the next test the target is T2, ER (estrogen receptor) (Homo sapiens, UniProt P03372).
T2 construct: MCF-7/ERE-luciferase monoclonal cells were selected by transfection of MCF-7; host or cells: MCF-7/ERE-luciferase (only the ERE-luciferase reporter was transfected)
T2 sequence (P03372 1-595): T1 sequence (P03372 1-595)
Nature of the test: Inhibition of the binding of estrogen (E) to estrogen receptor (ER), MCF-7/ERE-luciferase reporter cells. The conditions noted are these: MCF-7/ERE-luciferase cells, 0.1 nM estradiol, 24 hours, chemiluminescence; read-out: IC50 value of inhibition effect on the binding of E to ER. Summed up: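 MCF-7 cells stably carrying an ERE-luciferase reporter, grown in charcoal-stripped FBS medium, were treated with compound plus 0.1 nM estradiol for 24 h at 37 °C. Luciferase chemiluminescence was then read and plotted against log compound concentration to derive IC50.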
In general terms: Reporter assays use an easily measured gene product as a stand-in for the process of interest.

For `CC1Cc2cc(-c3cnn(C)c3)ccc2C(c2c(F)cc(/C=C/C(=O)O)cc2F)N1c1ccc(C2CC2)cc1` [Example 4, (E)-3-(4-((1S,3R/1R,3S)-2-(4-Cyclopropylphenyl)-3-methyl-6-(1-methyl-1H-pyrazol-4-yl)-1,2,3,4-tetrahydroisoquinolin-1-yl)-3,5-difluorophenyl)acrylic acid], on ERα, the Emax at 3 µM was 136%. The results for the IC50 in the test on MCF7 cells and on ER (estrogen receptor) were 0.42 nM and 0.27 nM, respectively.
The corresponding values for `COc1ccc(N2C(C)Cc3cc(-c4cnn(C)c4)ccc3C2c2ccc(/C=C/C(=O)O)cc2)cc1` [Example 46, (E)-3-(4-((1R,3R/1S,3S)-2-(4-Methoxyphenyl)-3-methyl-6-(1-methyl-1H-pyrazol-4-yl)-1,2,3,4-tetrahydroisoquinolin-1-yl)phenyl)acrylic acid] are 111%, 0.65 nM and 1.42 nM.
